# Laboratory results reported in ChEMBL document CHEMBL3860023, “Structural optimization of pyridine-type DAPY derivatives to exploit the tolerant regions of the NNRTI binding pocket” (Eur J Med Chem, 2016).
# Test system: Human immunodeficiency virus 1
# Assay: Antiviral activity against HIV1 3B expressing wild type reverse transcriptase infected in human MT4 cells assessed as protection against virus-induced cytopathic effect after 5 days by MTT assay
# Type: functional, cell-based
# Conditions: Human immunodeficiency virus 1, 3B, MT4, 120 h
row,Compound,EC50 [nM]
1,Cc1cc(C)c(Oc2cc(Cl)nc(NC3CCN(Cc4ccncc4)CC3)c2)c(C)c1,42
2,Cc1cc(C#N)cc(C)c1Oc1cc(Cl)nc(NC2CCN(Cc3ccncc3)CC2)c1,9.1
3,O=C1Nc2ccc(Cl)cc2[C@@](C#CC2CC2)(C(F)(F)F)O1 [EFAVIRENZ],6.8
4,Cc1cc(C)c(Oc2cc(Cl)nc(NC3CCN(Cc4ccc(C(N)=O)cc4)CC3)c2)c(C)c1,35
5,Cc1cc(C#N)cc(C)c1Oc1cc(Cl)nc(Nc2ccc(CN3CCOCC3)cc2)c1,930
6,COc1cc(Oc2c(C)cc(C#N)cc2C)cc(NC2CCN(Cc3ccc(S(N)(=O)=O)cc3)CC2)n1,7.8
7,Cc1cc(C#N)cc(C)c1Oc1cc(Cl)nc(NC2CCN(CC3CCC3)CC2)c1,> 4200
8,Cc1cc(C)c(Oc2cc(Cl)nc(NC3CCN(Cc4ccc(S(C)(=O)=O)cc4)CC3)c2)c(C)c1,25
9,Cc1cc(C#N)cc(C)c1Oc1cc(Cl)nc(Nc2ccc(C#N)cc2)c1,1070
10,COc1cc(Oc2c(C)cc(C#N)cc2C)cc(NC2CCN(Cc3ccccc3)CC2)n1,100
11,Cc1cc(C)c(Oc2cc(Cl)nc(NC3CCN(Cc4ccc(S(N)(=O)=O)cc4)CC3)c2)c(C)c1,33
12,Cc1cc(C#N)cc(C)c1Oc1cc(Cl)nc(NC2CCN(Cc3ccc(S(N)(=O)=O)cc3)CC2)c1,7.4
13,COc1cc(Oc2c(C)cc(C#N)cc2C)cc(NC2CCN(Cc3ccncc3)CC2)n1,13

# Test system: Human immunodeficiency virus 1
# Assay: Antiviral activity against HIV1 RES056 expressing reverse transcriptase K103N/Y181C double mutant infected in human MT4 cells assessed as protection against virus-induced cytopathic effect after 5 days by MTT assay
# Type: functional, cell-based
# Conditions: Human immunodeficiency virus 1, RES056, MT4, 120 h
row,Compound,EC50 [nM]
1,Cc1ccnc2c1NC(=O)c1cccnc1N2C1CC1 [NEVIRAPINE],≥ 9800
2,CC(C)Nc1cccnc1N1CCN(C(=O)c2cc3cc(NS(C)(=O)=O)ccc3[nH]2)CC1 [DELAVIRDINE],> 36200
3,Cc1cc(C)c(Oc2cc(Cl)nc(NC3CCN(Cc4ccncc4)CC3)c2)c(C)c1,≥ 10500
4,Cc1cc(C#N)cc(C)c1Oc1cc(Cl)nc(NC2CCN(Cc3ccncc3)CC2)c1,≥ 6500
5,O=C1Nc2ccc(Cl)cc2[C@@](C#CC2CC2)(C(F)(F)F)O1 [EFAVIRENZ],240
6,Cc1cc(C)c(Oc2cc(Cl)nc(NC3CCN(Cc4ccc(C(N)=O)cc4)CC3)c2)c(C)c1,> 8200
7,Cc1cc(C#N)cc(C)c1Oc1cc(Cl)nc(Nc2ccc(CN3CCOCC3)cc2)c1,> 6900
8,COc1cc(Oc2c(C)cc(C#N)cc2C)cc(NC2CCN(Cc3ccc(S(N)(=O)=O)cc3)CC2)n1,6800
9,Cc1cc(C#N)cc(C)c1Oc1cc(Cl)nc(NC2CCN(CC3CCC3)CC2)c1,> 4200
10,Cc1cc(C)c(Oc2cc(Cl)nc(NC3CCN(Cc4ccc(S(C)(=O)=O)cc4)CC3)c2)c(C)c1,> 1100
11,Cc1cc(C#N)cc(C)c1Oc1cc(Cl)nc(Nc2ccc(C#N)cc2)c1,> 57700
12,COc1cc(Oc2c(C)cc(C#N)cc2C)cc(NC2CCN(Cc3ccccc3)CC2)n1,> 3500
13,Cc1cc(C)c(Oc2cc(Cl)nc(NC3CCN(Cc4ccc(S(N)(=O)=O)cc4)CC3)c2)c(C)c1,≥ 9400
14,Cc1cc(C#N)cc(C)c1Oc1cc(Cl)nc(NC2CCN(Cc3ccc(S(N)(=O)=O)cc3)CC2)c1,> 7000
15,COc1cc(Oc2c(C)cc(C#N)cc2C)cc(NC2CCN(Cc3ccncc3)CC2)n1,6200

# Test system: not listed separately
# Assay: Cytotoxicity against mock-infected human MT4 cells assessed as reduction in cell viability after 5 days by MTT assay
# Type: toxicity, cell-based
# Conditions: not given
row,Compound,CC50 at 120 h [nM]
1,Cc1ccnc2c1NC(=O)c1cccnc1N2C1CC1 [NEVIRAPINE],> 15000
2,CC(C)Nc1cccnc1N1CCN(C(=O)c2cc3cc(NS(C)(=O)=O)ccc3[nH]2)CC1 [DELAVIRDINE],> 36200
3,Cc1cc(C)c(Oc2cc(Cl)nc(NC3CCN(Cc4ccncc4)CC3)c2)c(C)c1,10400
4,Cc1cc(C#N)cc(C)c1Oc1cc(Cl)nc(NC2CCN(Cc3ccncc3)CC2)c1,9700
5,O=C1Nc2ccc(Cl)cc2[C@@](C#CC2CC2)(C(F)(F)F)O1 [EFAVIRENZ],> 6300
6,Cc1cc(C)c(Oc2cc(Cl)nc(NC3CCN(Cc4ccc(C(N)=O)cc4)CC3)c2)c(C)c1,8200
7,Cc1cc(C#N)cc(C)c1Oc1cc(Cl)nc(Nc2ccc(CN3CCOCC3)cc2)c1,7000
8,COc1cc(Oc2c(C)cc(C#N)cc2C)cc(NC2CCN(Cc3ccc(S(N)(=O)=O)cc3)CC2)n1,10000
9,Cc1cc(C#N)cc(C)c1Oc1cc(Cl)nc(NC2CCN(CC3CCC3)CC2)c1,4200
10,Cc1cc(C)c(Oc2cc(Cl)nc(NC3CCN(Cc4ccc(S(C)(=O)=O)cc4)CC3)c2)c(C)c1,1200
11,Cc1cc(C#N)cc(C)c1Oc1cc(Cl)nc(Nc2ccc(C#N)cc2)c1,57700
12,COc1cc(Oc2c(C)cc(C#N)cc2C)cc(NC2CCN(Cc3ccccc3)CC2)n1,3500
13,Cc1cc(C)c(Oc2cc(Cl)nc(NC3CCN(Cc4ccc(S(N)(=O)=O)cc4)CC3)c2)c(C)c1,5400
14,Cc1cc(C#N)cc(C)c1Oc1cc(Cl)nc(NC2CCN(Cc3ccc(S(N)(=O)=O)cc3)CC2)c1,7000
15,Cc1cn([C@H]2C[C@H](N=[N+]=[N-])[C@@H](CO)O2)c(=O)[nH]c1=O [ZIDOVUDINE],> 93500
16,COc1cc(Oc2c(C)cc(C#N)cc2C)cc(NC2CCN(Cc3ccncc3)CC2)n1,20800

# Test system: not listed separately
# Assay: Selectivity index, ratio of CC50 for mock-infected human MT4 cells to EC50 for HIV1 3B expressing wild type reverse transcriptase
# Type: toxicity, cell-based
# Conditions: read-out: Ratio CC50/EC50
row,Compound,selectivity ratio
1,CC(C)Nc1cccnc1N1CCN(C(=O)c2cc3cc(NS(C)(=O)=O)ccc3[nH]2)CC1 [DELAVIRDINE],> 59
2,Cc1cc(C)c(Oc2cc(Cl)nc(NC3CCN(Cc4ccncc4)CC3)c2)c(C)c1,247
3,Cc1cc(C#N)cc(C)c1Oc1cc(Cl)nc(NC2CCN(Cc3ccncc3)CC2)c1,1070
4,Cc1cc(C)c(Oc2cc(Cl)nc(NC3CCN(Cc4ccc(C(N)=O)cc4)CC3)c2)c(C)c1,230
5,Cc1cc(C#N)cc(C)c1Oc1cc(Cl)nc(Nc2ccc(CN3CCOCC3)cc2)c1,7
6,COc1cc(Oc2c(C)cc(C#N)cc2C)cc(NC2CCN(Cc3ccc(S(N)(=O)=O)cc3)CC2)n1,1280
7,Cc1cc(C#N)cc(C)c1Oc1cc(Cl)nc(NC2CCN(CC3CCC3)CC2)c1,< 1
8,Cc1cc(C)c(Oc2cc(Cl)nc(NC3CCN(Cc4ccc(S(C)(=O)=O)cc4)CC3)c2)c(C)c1,46
9,Cc1cc(C#N)cc(C)c1Oc1cc(Cl)nc(Nc2ccc(C#N)cc2)c1,54
10,COc1cc(Oc2c(C)cc(C#N)cc2C)cc(NC2CCN(Cc3ccccc3)CC2)n1,37
11,Cc1cc(C)c(Oc2cc(Cl)nc(NC3CCN(Cc4ccc(S(N)(=O)=O)cc4)CC3)c2)c(C)c1,161
12,Cc1cc(C#N)cc(C)c1Oc1cc(Cl)nc(NC2CCN(Cc3ccc(S(N)(=O)=O)cc3)CC2)c1,946
13,Cc1cn([C@H]2C[C@H](N=[N+]=[N-])[C@@H](CO)O2)c(=O)[nH]c1=O [ZIDOVUDINE],> 13400
14,COc1cc(Oc2c(C)cc(C#N)cc2C)cc(NC2CCN(Cc3ccncc3)CC2)n1,1570

# Test system: not listed separately
# Assay: Selectivity index, ratio of CC50 for mock-infected human MT4 cells to EC50 for HIV1 RES056 expressing reverse transcriptase K103N/Y181C double mutant
# Type: toxicity, cell-based
# Conditions: read-out: Ratio CC50/EC50
row,Compound,selectivity ratio
1,Cc1cc(C)c(Oc2cc(Cl)nc(NC3CCN(Cc4ccncc4)CC3)c2)c(C)c1,≤ 1
2,Cc1cc(C#N)cc(C)c1Oc1cc(Cl)nc(NC2CCN(Cc3ccncc3)CC2)c1,≤ 1
3,Cc1cc(C)c(Oc2cc(Cl)nc(NC3CCN(Cc4ccc(C(N)=O)cc4)CC3)c2)c(C)c1,< 1
4,Cc1cc(C#N)cc(C)c1Oc1cc(Cl)nc(Nc2ccc(CN3CCOCC3)cc2)c1,< 1
5,COc1cc(Oc2c(C)cc(C#N)cc2C)cc(NC2CCN(Cc3ccc(S(N)(=O)=O)cc3)CC2)n1,1
6,Cc1cc(C#N)cc(C)c1Oc1cc(Cl)nc(NC2CCN(CC3CCC3)CC2)c1,< 1
7,Cc1cc(C)c(Oc2cc(Cl)nc(NC3CCN(Cc4ccc(S(C)(=O)=O)cc4)CC3)c2)c(C)c1,< 1
8,Cc1cc(C#N)cc(C)c1Oc1cc(Cl)nc(Nc2ccc(C#N)cc2)c1,< 1
9,COc1cc(Oc2c(C)cc(C#N)cc2C)cc(NC2CCN(Cc3ccccc3)CC2)n1,< 1
10,Cc1cc(C)c(Oc2cc(Cl)nc(NC3CCN(Cc4ccc(S(N)(=O)=O)cc4)CC3)c2)c(C)c1,≤ 1
11,Cc1cc(C#N)cc(C)c1Oc1cc(Cl)nc(NC2CCN(Cc3ccc(S(N)(=O)=O)cc3)CC2)c1,< 1
12,Cc1cn([C@H]2C[C@H](N=[N+]=[N-])[C@@H](CO)O2)c(=O)[nH]c1=O [ZIDOVUDINE],> 15000
13,COc1cc(Oc2c(C)cc(C#N)cc2C)cc(NC2CCN(Cc3ccncc3)CC2)n1,3

# Test system: not listed separately
# Assay: Solubility of the compound
# Type: physicochemical
# Conditions: not given
row,Compound,solubility [µM]
1,Cc1cc(C)c(Oc2cc(Cl)nc(NC3CCN(Cc4ccncc4)CC3)c2)c(C)c1,> 57
2,Cc1cc(C#N)cc(C)c1Oc1cc(Cl)nc(NC2CCN(Cc3ccncc3)CC2)c1,> 56
3,Cc1cc(C)c(Oc2cc(Cl)nc(NC3CCN(Cc4ccc(C(N)=O)cc4)CC3)c2)c(C)c1,> 52
4,Cc1cc(C#N)cc(C)c1Oc1cc(Cl)nc(Nc2ccc(CN3CCOCC3)cc2)c1,> 56
5,COc1cc(Oc2c(C)cc(C#N)cc2C)cc(NC2CCN(Cc3ccc(S(N)(=O)=O)cc3)CC2)n1,> 48
6,Cc1cc(C#N)cc(C)c1Oc1cc(Cl)nc(NC2CCN(CC3CCC3)CC2)c1,> 59
7,Cc1cc(C)c(Oc2cc(Cl)nc(NC3CCN(Cc4ccc(S(C)(=O)=O)cc4)CC3)c2)c(C)c1,> 49
8,Cc1cc(C#N)cc(C)c1Oc1cc(Cl)nc(Nc2ccc(C#N)cc2)c1,> 3
9,COc1cc(Oc2c(C)cc(C#N)cc2C)cc(NC2CCN(Cc3ccccc3)CC2)n1,> 56
10,Cc1cc(C)c(Oc2cc(Cl)nc(NC3CCN(Cc4ccc(S(N)(=O)=O)cc4)CC3)c2)c(C)c1,> 49
11,Cc1cc(C#N)cc(C)c1Oc1cc(Cl)nc(NC2CCN(Cc3ccc(S(N)(=O)=O)cc3)CC2)c1,> 48
12,COc1cc(Oc2c(C)cc(C#N)cc2C)cc(NC2CCN(Cc3ccncc3)CC2)n1,> 11

# Biological target: Human immunodeficiency virus type 1 reverse transcriptase (Human immunodeficiency virus 1, UniProt Q72547)
# Assay: Inhibition of recombinant wild type HIV1 p66/p51 using poly(rA) template/oligo(dT)16 primer after 40 mins by PicoGreen-based spectrofluorometric method
# Conditions: not given
row,Compound,IC50 [nM]
1,Cc1cc(C)c(Oc2cc(Cl)nc(NC3CCN(Cc4ccncc4)CC3)c2)c(C)c1,82
2,Cc1cc(C#N)cc(C)c1Oc1cc(Cl)nc(NC2CCN(Cc3ccncc3)CC2)c1,40
3,Cc1cc(C)c(Oc2cc(Cl)nc(NC3CCN(Cc4ccc(C(N)=O)cc4)CC3)c2)c(C)c1,98
4,Cc1cc(C#N)cc(C)c1Oc1cc(Cl)nc(Nc2ccc(CN3CCOCC3)cc2)c1,1320
5,COc1cc(Oc2c(C)cc(C#N)cc2C)cc(NC2CCN(Cc3ccc(S(N)(=O)=O)cc3)CC2)n1,132
6,Cc1cc(C)c(Oc2cc(Cl)nc(NC3CCN(Cc4ccc(S(C)(=O)=O)cc4)CC3)c2)c(C)c1,160
7,Cc1cc(C#N)cc(C)c1Oc1cc(Cl)nc(Nc2ccc(C#N)cc2)c1,773
8,COc1cc(Oc2c(C)cc(C#N)cc2C)cc(NC2CCN(Cc3ccccc3)CC2)n1,264
9,Cc1cc(C)c(Oc2cc(Cl)nc(NC3CCN(Cc4ccc(S(N)(=O)=O)cc4)CC3)c2)c(C)c1,159
10,Cc1cc(C#N)cc(C)c1Oc1cc(Cl)nc(NC2CCN(Cc3ccc(S(N)(=O)=O)cc3)CC2)c1,57
11,COc1cc(Oc2c(C)cc(C#N)cc2C)cc(NC2CCN(Cc3ccncc3)CC2)n1,81
